Experimental data from US20150201661A1, “BAMBOO EXTRACTS, COMPOSITIONS AND USES THEREOF” (priority 2014, published 2015).
Marks after values point to notes of the source that are not given here.

Experiments:
Assay type in all cases: in vivo, Pseudosciaena crocea
[1] = Body weight and fat content of large yellow croaker; conditions: 5 months, feed with GBE 3.0 g/kg or astaxanthin 1.0 g/kg
Source text: (§1) Yellow croaker fish (Pseudosciaena crocea) are an important marine economic fish in China. One thousand and eight hundred of large yellow croakers with the average weight of 150.06±11.35 g, were randomly selected into three groups (each group represented by three replicates of 200 large yellow croakers each). The GBE group and astaxanthin group were feed with complete formula puffed pellet feed rich in 3.0 g/kg of GBE and 1.0 g/kg of astaxanthin, respectively. Astaxanthin is an accepted dietary additive, but is quite expensive. The reference group was feed with chilled miscellaneous fish and shrimp. The breeding time was five months. Feeding was stopped 24 h after the test. Eight test large yellow croakers were randomly selected from each replicate group (that is, 24 test large yellow croakers each group). The selected fish were weighed, the livers were segmented, and the abdominal and back muscles examined after they were killed. Adequate amount of fresh back and abdominal muscle were used for sensory evaluation, the rest were sub-packaged and stored on −20° C. refrigerator for further use. The fat content of liver and fish and the superoxide dismutase (SOD) activity, catalase (CAT) activity, malondialdehyde (MDA) content, leptin content, adiponectin content of liver were detected.

back muscle tissue = assay: Transmission electron microscopy of back muscle of large yellow croakers; conditions: FIG. 4
Source text: as §1

malondialdehyde (MDA) = assay: MDA content (lipid peroxidation) in liver of large yellow croaker; conditions: 5 months, feed with GBE 3.0 g/kg or astaxanthin 1.0 g/kg
Source text: as §1

leptin = assay: Leptin level in the liver of large yellow croaker; conditions: 5 months, feed with GBE 3.0 g/kg or astaxanthin 1.0 g/kg
Source text: as §1

adiponectin = assay: Adiponectin level in the liver of large yellow croaker; conditions: 5 months, feed with GBE 3.0 g/kg or astaxanthin 1.0 g/kg
Source text: as §1

catalase (CAT) = assay: CAT activity in liver of large yellow croaker; conditions: 5 months, feed with GBE 3.0 g/kg or astaxanthin 1.0 g/kg
Source text: as §1

[2] = tested on: superoxide dismutase (SOD); assay: SOD activity in liver of large yellow croaker; conditions: 5 months, feed with GBE 3.0 g/kg or astaxanthin 1.0 g/kg
Source text: as §1

SMILES: CC1=C(/C=C/C(C)=C/C=C/C(C)=C/C=C/C=C(C)/C=C/C=C(C)/C=C/C2=C(C)C(=O)[C@@H](O)CC2(C)C)C(C)(C)C[C@H](O)C1=O [ASTA, astaxanthin]
- overall body weight vs reference group ([1]; FIG. 3): no significant differences
- fat content of liver vs reference group ([1]; p<0.05): significantly lower
- fat content of muscle vs reference group ([1]; p<0.05): significantly lower
- clearance of muscle bundle, order of groups (back muscle tissue; TEM 10000 times): reference group<GBE group<astaxanthin group
- quantity of mitochondria, order of groups (back muscle tissue; TEM 12000 times): reference group<GBE group<astaxanthin group
- MDA level in the liver (malondialdehyde (MDA)): 118 ± 9.33 nmol/mg prot
- LEPTIN level in the liver (leptin): 1.08 ± 0.12^b ng/mL
- ADIPONECTIN level in the liver (adiponectin): 2.57 ± 0.33^c ug/mL
- CAT activity in the liver (catalase (CAT)): 22.56 ± 3.11^a U/mg prot
- CAT/SOD ratio in the liver (catalase (CAT)): 0.13 ± 0.01^a
- SOD activity in the liver [2]: 157.35 ± 10.24^a U/mg prot
